Reference: patent US20260226417A1, “METHOD FOR INHIBITING AGING OF STEM CELLS” (ENCELL CO., LTD, priority 2023, published 2026)

Assays:
[1] = tested on: Annexin V, an apoptosis marker, in muscle tissue; experiment: Annexin V Western blotting in muscle tissue of muscle disease mouse model after injection of treated P18 cells; format: in vivo; details: P18 cells treated with 160 μM for 72 hours, 5×10^4 cells per mouse via tail vein, one week after injection
Procedure: (§1) A replicative senescence model (P18) was treated with nervonic acid (160 μM) and then injected into a muscle disease mouse model to assess the effect of nervonic acid treatment on the therapeutic efficacy of the replicative senescence model (P18) in terms of reducing apoptosis in muscle tissue.
(§2) Specifically, the muscle disease mouse model used was C57BL/10ScSn-Dmdmdx/J (mdx mouse) , and C57BL/10J with the same genetic background was used as a control group. All experiments were conducted using mice aged 4 to 5 months. The cells to be injected were human umbilical cord-derived young mesenchymal stem cells (control group) (P5) and replicative senescence model (P18). More specifically, the replicative senescence model (P18) was treated with 160 μM nervonic acid or an equivalent amount of DMSO for 72 hours during culture at P18 and then dissociated as single cells with 0.25% Trypsin/EDTA (Gibco, MT, USA), and 5×10^4 cells per mouse were injected via the tail vein. One week after injection, both tibial muscles of the mouse model were harvested and fixed in 4% paraformaldehyde or frozen.
In addition, the expression of Annexin V was assessed at the protein level. Specifically, the protein to be used in the experiment was extracted from muscle tissue. […]

[2] = tested on: human bone marrow-derived mesenchymal stem cells (BM-MSCs/passage 15); experiment: β-galactosidase staining, senescent BM-MSCs; format: cell-based; details: BM-MSCs passage 15, 3 days
Procedure: Human bone marrow-derived mesenchymal stem cells (BM-MSCs) were purchased from Cambrex (Lonza, #PT-2501).
(§3) Each of the obtained mesenchymal stem cells was subcultured in aMEM (a-modified Minimum Essential Media) containing 10% fetal bovine serum (FBS) and 0.5% gentamicin (10 mg/ml).
(§4) The replicative senescence models of human adipose-derived mesenchymal stem cells (AD-MSCs/passage 18), human bone marrow-derived mesenchymal stem cells (BM-MSCs/passage 15), human umbilical cord blood-derived mesenchymal stem cells (UCB-MSCs/passage 16), and human placenta-derived mesenchymal stem cells (PL-MSCs/passage 18) established as described above were treated with nervonic acid for 3 days, and β-galactosidase staining was performed to observe the extent of senescence.

[3] = tested on: senescence markers P16 and P21; experiment: qRT-PCR of senescence markers p16 and p21 at P10 after treatment at each passage; format: cell-based, human; details: 160 μM for 24 hours at each passage
Procedure: Specifically, qRT-PCR performed in this example is as follows: after treating the replicative senescence model (P18) with nervonic acid for 3 days, total RNA was extracted using Trizol (Invitrogen, MA, USA) according to the method provided by the vendor. After quantifying the extracted total RNA, random hexamer and dNTP were added, and PCR was performed at 65° C. for 5 minutes. 5× SSIV buffer, 100 mM DTT, RNAse OUT, and Superscript IV RT were added and reverse transcription was performed to synthesize cDNA, and then qRT-PCR was performed to measure gene expression, and the expression levels were compared through 2^−ΔΔCt analysis.
Example 8. Confirmation Of anti-senescence efficacy by treating various human tissue-derived mesenchymal stem cells with nervonic acid Human-derived mesenchymal stem cells were treated with nervonic acid (160 μM) at each passage during cell culture from control cells (P5) to P10 to determine whether continuous treatment with nervonic acid during cell culture at early passage numbers was able to delay cellular senescence.
Specifically, from the day after human-derived mesenchymal stem cells were subcultured, treatment with 160 μM nervonic acid or an equivalent amount of DMSO (control) for 24 hours was performed, followed by replacement with the existing culture medium the next day. The above process was repeated to perform subculture up to P10 (passage 10). […]

[4] = tested on: replicative senescence model of human umbilical cord-derived mesenchymal stem cells (P18); experiment: β-galactosidase staining, extent of senescence, replicative senescence model (P18); format: cell-based; set-up: dose or concentration left out as unconfirmed
Procedure: Compared to the control cells (P5) in which the extent of senescence was 0.21 % of the total, the extent of senescence in the senescence-induced mesenchymal stem cells (P18) was increased to 42.44% of the total, confirming the progression of replicative senescence (FIGs. 1a and 1b). Specifically, individual cells (5×10^4/well) were suspended in a 6-well plate and stabilized for 24 hours, followed by adding β-galactosidase staining solution and staining for 24 hours, after which the extent of senescence was measured under a microscope.
Therefore, it was confirmed that this concentration was an optimal concentration that inhibited the extent of senescence by inducing apoptosis specifically in the replicative senescence model (P18) without affecting the cytotoxicity of the control cells (P5).

[5] = tested on: MyHC (myosin heavy chain), a marker of muscle regeneration, in muscle tissue; experiment: MyHC Western blotting in muscle tissue of muscle disease mouse model after injection of treated P18 cells; format: in vivo; details: P18 cells treated with 160 μM for 72 hours, injected via tail vein, mdx mouse, one week after injection
Procedure: as §2
as §1, with “Example 10. Comparative analysis of muscle regeneration promotion efficacy after injection of various human tissue-derived mesenchymal stem cells treated with nervonic acid into muscle disease mouse model A” for “A”, “muscle regeneration” for “reducing apoptosis”
In addition, the expression of MyHC was assessed at the protein level. […]

[6] = tested on: human umbilical cord blood-derived mesenchymal stem cells (UCB-MSCs/passage 16); experiment: β-galactosidase staining, senescent UCB-MSCs; format: cell-based; details: UCB-MSCs passage 16, 3 days
Text: Human placenta-derived mesenchymal stem cells (pl-mscs) Were Isolated From Placentas Separated according to the previously reported method of Choi et al. (PLOS ONE, (2017) 12 (2): e0172642), umbilical cord blood-derived mesenchymal stem cells (UCB-MSCs) were isolated from the umbilical cord blood separated according to the method of Kim et al. (FEBS Letters, (2010) 584:3601-3608), and adipose tissue-derived mesenchymal stem cells (AD-MSCs) were isolated from adipose tissue separated according to the previously reported method of Palumbo et al. (Int. J. Mol. Sci. (2018) 19:1987).
as §3, §4

CCCCCCCC/C=C\CCCCCCCCCCCCCC(=O)O [nervonic acid]
Annexin V protein expression (Western blotting), fold decrease compared to mdx control group [1]: 0.30±0.02 fold
progression of senescence (β-galactosidase staining) compared to control group (DMSO) [2]: progression of senescence was significantly inhibited
p16 mRNA expression, fold compared to control group (DMSO) [3]: 0.84±0.05 fold
p21 mRNA expression, fold compared to control group (DMSO) [3]: 0.84±0.03 fold
extent of senescence (β-galactosidase staining), fold decrease compared to before treatment [4]: 0.41±0.04 fold
MyHC protein expression level (Western blotting) compared to DMSO treatment group [5]: significantly increased
progression of senescence (β-galactosidase staining) compared to control group (DMSO) [6]: progression of senescence was significantly inhibited
